In US6964870B2, “Enhanced selection of genetically modified pine embryogenic tissue” (MeadWestvaco Corporation, priority 2000, dated 2005):

Tests used:
Assay in all cases: Agrobacterium transformation, transformants per selection plate with ABA in preparation/recovery/selection media
Assay type in all cases: cell-based
[1] = system: P. rigida Hybrid embryogenic cell line H1
Source text: (§1) Seven loblolly pine cell lines or hybrid cell lines from seven widely diverse genetic backgrounds were used in this experiment. To prepare for gene transfer using Agrobacterium, fabric supports were sterilized by autoclaving and placed in a sterile Buchner funnel, and one to five milliliters of embryogenic suspension was pipetted onto each support such that the embryogenic tissue was evenly distributed over its surface. Following this the liquid medium was suctioned from the tissues and each support bearing the embryogenic tissue was placed on gelled medium for inoculation by Agrobacterium. In this case the medium used was the same as the preparation medium described in Example 1 above, except that the medium, used here for preparation and co-cultivation of the cells, contained ABA at 0, 10, or 30 mg/L as an experimental condition. Genes were then introduced into the plant material by co-cultivation with Agrobacterium(Wenck et al. 1999). Specifically, gene constructs containing a reporter gene and a selectable marker were introduced into Agrobacterium tumefaciens strain EHA105 with the virulence-enhancing plasmid pTOK47 (Wenck et al. 1999), by techniques well known to those skilled in the art, and virulence was then induced with administration of acetosyringone by commonly used techniques, well known to those skilled in the art, whereupon the induced Agrobacterium was dripped over the plant material and these were co-cultivated in the dark at 23°±2° C. for approximately 24-72 hours. Those skilled in the art recognize that many different gene constructs, plasmids, strains, media, and co-cultivation times and protocols would be suitable for use in the present method.
(§2) Following co-cultivation, cells were re-suspended into fresh DCR4 liquid wash medium (Table 2) containing eradicants such as 200-400 mg/L TIMENTIN® antibiotic. The DCR4 liquid wash medium was contained in sterile “baby food” jars with MAGENTA® aerated lids, conventional beakers, or multi-well plates. Resuspension was initiated by grasping the membrane support bearing the infected cells, using forceps, and rolling or folding it so that it could be taken up and placed into the liquid in the wash container. The liquid was then agitated to get the cells into suspension, and the membrane support was scraped with sterile forceps if cells appeared to be adhering to it. Once the cells were in suspension, the membrane was removed with sterile forceps.
(§3) Following this wash step, the cells were plated onto fresh sterile support membranes of the same type as used in the previous step, again by placing the fresh sterile support membranes in a sterile Buchner funnel, pipetting the suspension of plant cells onto the membranes, and again suctioning the liquid medium from the tissues using a mild vacuum. The cells were again resuspended in and cultured in fresh sterile wash medium by agitating the membrane bearing the cells in the liquid, again removing cells that appeared to be adhering by gently scraping with forceps. The cells were then re-plated on fresh membrane supports over Buchner funnels. This procedure was repeated twice before the cells were again plated on supports as described above.
(§4) Supports bearing approximately 0.1 g of embryogenic tissue were divided onto recovery media (having the same formulation as the maintenance medium except for the addition of 400 mg/L TIMENTIN® antibiotic) either containing or lacking ABA. […] Concentrations of ABA used in all these media were 0, 10, and 30 mg/l.
(§5) Cells were maintained on the selection media, with transfer of the polyester support membranes to fresh selection media of the same composition, every two weeks for a total of eight weeks of selection. Cells from actively growing sublines from selection were examined using stereomicroscopes for the expression of the visual marker gene uidA at the conclusion of the selection period. […]

[2] = system: P. taeda embryogenic cell line P1
Source text: as §1, §2, §3, §4, §5

[3] = system: P. taeda embryogenic cell line P2
Source text: as §1, §2, §3, §4, §5

[4] = system: P. taeda embryogenic cell line P3
Source text: as §1, §2, §3, §4, §5

[5] = system: P. taeda embryogenic cell line P4
Source text: as §1, §2, §3, §4, §5

[6] = system: P. taeda embryogenic cell line P5
Source text: as §1, §2, §3, §4, §5

[7] = system: P. taeda embryogenic cell line P6
Source text: as §1, §2, §3, §4, §5

[8] = ABA mg/l in preparation/recovery/selection medium 0/0/10
[9] = ABA mg/l in preparation/recovery/selection medium 0/0/30
[10] = ABA mg/l in preparation/recovery/selection medium 0/10/10
[11] = ABA mg/l in preparation/recovery/selection medium 0/10/30
[12] = ABA mg/l in preparation/recovery/selection medium 0/30/30
[13] = ABA mg/l in preparation/recovery/selection medium 10/10/10
[14] = ABA mg/l in preparation/recovery/selection medium 30/10/10
[15] = ABA mg/l in preparation/recovery/selection medium 30/30/30

For CC1=CC(=O)CC(C)(C)[C@@]1(O)/C=C/C(C)=C\C(=O)O [ABA, abscisic acid], the “Average (n = 12) Number of Transformants observed per Selection Plate” value (“Average (n = 12) Number … per Selection Plate” below) [1, 8] was 27.0 +/− 11.2, the “Average (n = 12) Number … per Selection Plate” value [1, 9] was 21.1 +/− 6.5 and the “Average (n = 12) Number … per Selection Plate” value [1, 10] was 19.0 +/− 6.5. For the same compound, the “Average (n = 12) Number … per Selection Plate” value [1, 11] was 21.6 +/− 8.6, the “Average (n = 12) Number … per Selection Plate” value [1, 12] was 15.1 +/− 4.9 and the “Average (n = 12) Number … per Selection Plate” value [1, 13] was 21.9 +/− 8.4. For the same compound, the “Average (n = 12) Number … per Selection Plate” value [1, 14] was 22.9 +/− 10.1, the “Average (n = 12) Number … per Selection Plate” value [1, 15] was 21.8 +/− 9.9 and the “Average (n = 12) Number … per Selection Plate” value [2, 8] was 0.3 +/− 0.9. For the same compound, the “Average (n = 12) Number … per Selection Plate” value [2, 9] was 0.0 +/− 0.0, the “Average (n = 12) Number … per Selection Plate” value [2, 10] was 0.0 +/− 0.0 and the “Average (n = 12) Number … per Selection Plate” value [2, 11] was 0.1 +/− 0.3. For the same compound, the “Average (n = 12) Number … per Selection Plate” value [2, 12] was 0.8 +/− 0.6, the “Average (n = 12) Number … per Selection Plate” value [2, 13] was 1.3 +/− 0.9 and the “Average (n = 12) Number … per Selection Plate” value [2, 14] was 0.3 +/− 0.5. The “Average (n = 12) Number … per Selection Plate” value [2, 15] was 0.4 +/− 0.8, the “Average (n = 12) Number … per Selection Plate” value [3, 8] was 5.8 +/− 2.3 and the “Average (n = 12) Number … per Selection Plate” value [3, 9] was 8.8 +/− 4.8. For the same compound, the “Average (n = 12) Number … per Selection Plate” value [3, 10] was 1.0 +/− 1.0, the “Average (n = 12) Number … per Selection Plate” value [3, 11] was 0.3 +/− 0.5 and the “Average (n = 12) Number … per Selection Plate” value [3, 12] was 5.2 +/− 6.1. For the same compound, the “Average (n = 12) Number … per Selection Plate” value [3, 13] was 10.0, the “Average (n = 12) Number … per Selection Plate” value [3, 14] was 5.9 +/− 2.4 and the “Average (n = 12) Number … per Selection Plate” value [3, 15] was 5.3 +/− 2.5. For the same compound, the “Average (n = 12) Number … per Selection Plate” value [4, 8] was 21.7 +/− 3.6, the “Average (n = 12) Number … per Selection Plate” value [4, 9] was 22.3 +/− 5.4 and the “Average (n = 12) Number … per Selection Plate” value [4, 10] was 23.3 +/− 2.8. The “Average (n = 12) Number … per Selection Plate” value [4, 11] was 26.0 +/− 6.9, the “Average (n = 12) Number … per Selection Plate” value [4, 12] was 18.6 +/− 5.1 and the “Average (n = 12) Number … per Selection Plate” value [4, 13] was 22.6 +/− 4.3. The “Average (n = 12) Number … per Selection Plate” value [4, 14] was 21.6 +/− 3.6, the “Average (n = 12) Number … per Selection Plate” value [4, 15] was 21.1 +/− 2.3 and the “Average (n = 12) Number … per Selection Plate” value [5, 8] was 27.5 +/− 11.4. For the same compound, the “Average (n = 12) Number … per Selection Plate” value [5, 9] was 34.9 +/− 9.7, the “Average (n = 12) Number … per Selection Plate” value [5, 10] was 28.8 +/− 11.6 and the “Average (n = 12) Number … per Selection Plate” value [5, 11] was 30.9 +/− 9.3. The “Average (n = 12) Number … per Selection Plate” value [5, 12] was 28.6 +/− 7.6, the “Average (n = 12) Number … per Selection Plate” value [5, 13] was 27.8 +/− 9.0 and the “Average (n = 12) Number … per Selection Plate” value [5, 14] was 22.7 +/− 7.0. For the same compound, the “Average (n = 12) Number … per Selection Plate” value [5, 15] was 27.3 +/− 7.4, the “Average (n = 12) Number … per Selection Plate” value [6, 8] was 18.1 +/− 4.0 and the “Average (n = 12) Number … per Selection Plate” value [6, 9] was 5.5 +/− 3.1. The “Average (n = 12) Number … per Selection Plate” value [6, 10] was 2.4 +/− 2.0, the “Average (n = 12) Number … per Selection Plate” value [6, 11] was 7.2 +/− 2.1 and the “Average (n = 12) Number … per Selection Plate” value [6, 12] was 3.3 +/− 2.1. For the same compound, the “Average (n = 12) Number … per Selection Plate” value [6, 13] was 10.3 +/− 2.4, the “Average (n = 12) Number … per Selection Plate” value [6, 14] was 11.3 +/− 2.4 and the “Average (n = 12) Number … per Selection Plate” value [6, 15] was 14.3 +/− 3.5. The “Average (n = 12) Number … per Selection Plate” value [7, 8] was 3.9 +/− 1.5, the “Average (n = 12) Number … per Selection Plate” value [7, 9] was 3.3 +/− 2.8 and the “Average (n = 12) Number … per Selection Plate” value [7, 10] was 3.2 +/− 1.4. For the same compound, the “Average (n = 12) Number … per Selection Plate” value [7, 11] was 3.2 +/− 1.5, the “Average (n = 12) Number … per Selection Plate” value [7, 12] was 2.3 +/− 2.6 and the “Average (n = 12) Number … per Selection Plate” value [7, 13] was 4.5 +/− 1.3. For the same compound, the “Average (n = 12) Number … per Selection Plate” value [7, 14] was 3.1 +/− 2.3 and the “Average (n = 12) Number … per Selection Plate” value [7, 15] was 2.3 +/− 1.1.
